Experimental data reported in patent publication US5084082A, “Soybean plants with dominant selectable trait for herbicide resistance” (priority 1990, dated 1992).

What was measured:
Format in all cases: in vivo, soybean
[1] = tested on: Mutant 1-184A; test: Test A postemergence herbicide spray, greenhouse pots
Description: (§1) In the first post-emergence test, two true-breeding resistant mutant lines, W19 and W20, were compared to previously isolated tolerant mutants and wild-type Williams 82. Eighteen pots (20 cm diameter) of each soybean line (2 seeds per pot) were planted using a standard sterile potting mix. When the seedlings reached the second trifoliolate stage, plants were thinned back to one plant per pot. Each pot was then sprayed with a specific herbicide treatment using a conveyor belt spray apparatus to emulate field application. The nine different herbicide treatments included one rate (8 g/ha) of Compound 1 and two rates (8 and 32 g/ha) each of four other sulfonylurea herbicides (Compounds 2,3,7 and 8) (see Table VI) using a factorial treatment design with 2 replications.
(§2) In both postemergence tests, plants were returned to the greenhouse after treatment and provided with ample light, moisture, and nutrients to support healthy plant growth. Two to three ratings per pot were recorded over a three-week period and averaged to obtain a single value for each pot For each herbicide, analysis of variance on injury ratings was performed separately. Fisher's least significant difference (LSD) was used to determine the significance of line mean differences at each herbicide rate using the 95% level of confidence. […]

[2] = tested on: Williams 82; test: as above
Description: as §1, §2

[3] = tested on: mutant W19; test: as above
Description: as §1, §2

[4] = tested on: mutant W20; test: as above
Description: as §1, §2

[5] = tested on: Williams 82; test: Test B postemergence cross resistance test; details: Glycine max, post-emergence
Description: (§3) In the second postemergence test, six true-breeding resistant mutant lines (W4, W17, W19, W20, W23, and W28) were compared to Williams 82 for cross resistance to a broad range of ALS inhibitors including eight sulfonylureas and three imidazolinones. Two seeds were planted in each 10 cm pot and allowed to grow to the second trifoliolate stage. Pots were not thinned back if both plants were at the proper stage. For each of 11 herbicides, two rates (Table VII) were selected based on previous data: the low rate was expected to cause significant injury (but not death) to Williams 82 and the high rate was expected to severely injure or kill Williams 82. All but a few line x rate treatments were replicated twice.
as §2

[6] = tested on: mutant line W17; test: Test B postemergence cross resistance test; details: Glycine max, post-emergence
Description: as §3, §2

[7] = tested on: mutant line W19; test: Test B postemergence cross resistance test; details: Glycine max, post-emergence
Description: as §3, §2

[8] = tested on: mutant line W23; test: Test B postemergence cross resistance test; details: Glycine max, post-emergence
Description: as §3, §2

[9] = tested on: mutant line W28; test: Test B postemergence cross resistance test; details: Glycine max, post-emergence
Description: as §3, §2

[10] = tested on: mutant line W4; test: Test B postemergence cross resistance test; details: Glycine max, post-emergence
Description: as §3, §2

[11] = tested on: mutant line W20; test: Test B postemergence cross resistance test; details: Glycine max, post-emergence
Description: as §3
In both postemergence tests, plants were returned to the greenhouse after treatment and provided with ample light, moisture, and nutrients to support healthy plant growth. Two to three ratings per pot were recorded over a three-week period and averaged to obtain a single value for each pot For each herbicide, analysis of variance on injury ratings was performed separately. Fisher's least significant difference (LSD) was used to determine the significance of line mean differences at each herbicide rate using the 95% level of confidence.

[12] = tested on: Mutant W4-4; test: Postemergence herbicide spray test of W4-4 (Table VII-A); details: two weeks after treatment
Procedure: (§4) To investigate this hypothesis, a postemergence herbicide spray test was conducted to compare the reaction of W4-4 to both W20 and wild-type Williams. The applicant was particularly interested in the resistance of W4-4 to herbicide treatments that were injurious to both Williams and W20 in a previous test (Table VII). […] Twenty-four plants each of W4-4, W20, and Williams were planted in separate 10 cm pots and allowed to grow to the second trifoliolate stage. Each pot constituted a single experimental unit receiving a single herbicide treatment. Herbicide treatments (Table VIIA) were applied as described for the first postemergence test and were replicated twice. Control plants were sprayed with the spray carrier solution only (water with 0.25% X77 surfactant). At two weeks after treatment, each plant was rated for % herbicide injury as described in Table VIII. Analysis of variance on injury ratings was performed separately for each herbicide to calculate treatment means and standard errors. Fisher's least significant difference (LSD) was used to determine the significance of line means differences at each herbicide rate using the 95% level of confidence. […]

[13] = tested on: Williams 82; test: as above; details: two weeks after treatment
Procedure: as §4

[14] = tested on: mutant W20; test: as above; details: two weeks after treatment
Procedure: as §4

Structure (SMILES): COC(=O)c1sccc1S(=O)(=O)NC(=O)Nc1nc(C)nc(OC)n1 [Compound 2, Methyl 3-[[[[(4-methoxy-6-methyl-1,3,5-triazine-2-yl)amino]carbonyl]amino]sulfonyl]-2-thiophenecarboxylate]
- mean % injury ([1]; 8 g/ha postemergence): 13%
- mean % injury ([1]; 32 g/ha postemergence): 58%
- mean % injury ([2]; WM 82, 8 g/ha postemergence): 13%
- mean % injury ([2]; WM 82, 32 g/ha postemergence): 63%
- mean % injury ([3]; W19, 8 g/ha postemergence): 0%
- mean % injury ([3]; W19, 32 g/ha postemergence): 7%
- mean % injury ([4]; W20, 8 g/ha postemergence): 0%
- mean % injury ([4]; W20, 32 g/ha postemergence): 6%
- soybean crop injury at 16 g/ha ([5]; Wm 82, 16 g/ha postemergence): 70%
- soybean crop injury at 64 g/ha ([5]; Wm 82, 64 g/ha postemergence): 91%
- soybean crop injury (%) at 16 g/ha ([6]; W17, 16 g/ha postemergence): 0%
- soybean crop injury (%) at 64 g/ha ([6]; W17, 64 g/ha postemergence): 3%
- percent soybean crop injury at 16 g/ha ([7]; W19, 16 g/ha postemergence): 0%
- percent soybean crop injury at 64 g/ha ([7]; W19, 64 g/ha postemergence): 6%
- percent soybean injury at 16 g/ha ([8]; W23, 16 g/ha postemergence): 0%
- percent soybean injury at 64 g/ha ([8]; W23, 64 g/ha postemergence): 8%
- mean % injury to soybean at 16 g/ha ([9]; W28, 16 g/ha postemergence): 0%
- mean % injury to soybean at 64 g/ha ([9]; W28, 64 g/ha postemergence): 5%
- % crop injury at 16 g/ha ([10]; W4, 16 g/ha postemergence): 0%
- % crop injury at 64 g/ha ([10]; W4, 64 g/ha postemergence): 5%
- percent crop injury at 16 g/ha ([11]; W20, 16 g/ha postemergence): 5%
- percent crop injury at 64 g/ha ([11]; W20, 64 g/ha postemergence): 5%

Structure (SMILES): COC(=O)c1ccccc1S(=O)(=O)NC(=O)N(C)c1nc(C)nc(OC)n1 [Compound 3, Methyl 2-[[[[N-(4-methoxy-6-methyl-1,3,5-triazin-2-yl)N-methylamino]carbonyl]amino]sulfonyl]benzoate]
- mean % injury ([1]; 8 g/ha postemergence): 90%
- mean % injury ([1]; 32 g/ha postemergence): 91%
- mean % injury ([2]; WM 82, 8 g/ha postemergence): 92%
- mean % injury ([2]; WM 82, 32 g/ha postemergence): 95%
- mean % injury ([3]; W19, 8 g/ha postemergence): 14%
- mean % injury ([3]; W19, 32 g/ha postemergence): 63%
- mean % injury ([4]; W20, 8 g/ha postemergence): 8%
- mean % injury ([4]; W20, 32 g/ha postemergence): 63%
- soybean crop injury at 2 g/ha ([5]; Wm 82, 2 g/ha postemergence): 60%
- soybean crop injury at 8 g/ha ([5]; Wm 82, 8 g/ha postemergence): 94%
- soybean crop injury (%) at 2 g/ha ([6]; W17, 2 g/ha postemergence): 0%
- soybean crop injury (%) at 8 g/ha ([6]; W17, 8 g/ha postemergence): 25%
- percent soybean crop injury at 2 g/ha ([7]; W19, 2 g/ha postemergence): 5%
- percent soybean crop injury at 8 g/ha ([7]; W19, 8 g/ha postemergence): 29%
- percent soybean injury at 2 g/ha ([8]; W23, 2 g/ha postemergence): 0%
- percent soybean injury at 8 g/ha ([8]; W23, 8 g/ha postemergence): 45%
- mean % injury to soybean at 2 g/ha ([9]; W28, 2 g/ha postemergence): 8%
- mean % injury to soybean at 8 g/ha ([9]; W28, 8 g/ha postemergence): 21%
- % crop injury at 2 g/ha ([10]; W4, 2 g/ha postemergence): 3%
- % crop injury at 8 g/ha ([10]; W4, 8 g/ha postemergence): 18%
- percent crop injury at 2 g/ha ([11]; W20, 2 g/ha postemergence): 0%

Structure (SMILES): CCS(=O)(=O)c1cccnc1S(=O)(=O)NC(=O)Nc1nc(OC)cc(OC)n1 [Compound 7, N-[[(4,6-dimethoxy-2-pyrimidinyl)amino]carbonyl]-3-(ethylsulfonyl)-2-pyridinesulfonamide]
- mean % injury ([1]; 8 g/ha postemergence): 93%
- mean % injury ([1]; 32 g/ha postemergence): 93%
- mean % injury ([2]; WM 82, 8 g/ha postemergence): 95%
- mean % injury ([2]; WM 82, 32 g/ha postemergence): 93%
- mean % injury ([3]; W19, 8 g/ha postemergence): 65%
- mean % injury ([3]; W19, 32 g/ha postemergence): 80%
- mean % injury ([4]; W20, 8 g/ha postemergence): 65%
- mean % injury ([4]; W20, 32 g/ha postemergence): 84%
- soybean crop injury at 1 g/ha ([5]; Wm 82, 1 g/ha postemergence): 61%
- soybean crop injury at 4 g/ha ([5]; Wm 82, 4 g/ha postemergence): 98%
- soybean crop injury (%) at 1 g/ha ([6]; W17, 1 g/ha postemergence): 16%
- soybean crop injury (%) at 4 g/ha ([6]; W17, 4 g/ha postemergence): 55%
- percent soybean crop injury at 1 g/ha ([7]; W19, 1 g/ha postemergence): 19%
- percent soybean crop injury at 4 g/ha ([7]; W19, 4 g/ha postemergence): 65%
- percent soybean injury at 1 g/ha ([8]; W23, 1 g/ha postemergence): 31%
- percent soybean injury at 4 g/ha ([8]; W23, 4 g/ha postemergence): 60%
- mean % injury to soybean at 1 g/ha ([9]; W28, 1 g/ha postemergence): 20%
- mean % injury to soybean at 4 g/ha ([9]; W28, 4 g/ha postemergence): 54%
- % crop injury at 1 g/ha ([10]; W4, 1 g/ha postemergence): 21%
- % crop injury at 4 g/ha ([10]; W4, 4 g/ha postemergence): 69%
- percent crop injury at 1 g/ha ([11]; W20, 1 g/ha postemergence): 28%
- percent crop injury at 4 g/ha ([11]; W20, 4 g/ha postemergence): 66%
- mean % injury ([12]; W4-4, 4 g/ha postemergence): 10%
- mean % injury ([12]; W4-4, 16 g/ha postemergence): 30%
- mean % injury ([12]; W4-4, 32 g/ha postemergence): 43%
- mean % injury ([13]; WM82, 4 g/ha postemergence): 83%
- mean % injury ([13]; WM82, 16 g/ha postemergence): 93%
- mean % injury ([13]; WM82, 32 g/ha postemergence): 90%
- mean % injury ([14]; W20, 4 g/ha postemergence): 28%
- mean % injury ([14]; W20, 16 g/ha postemergence): 43%
- mean % injury ([14]; W20, 32 g/ha postemergence): 83%
